{"source": "paper PMC9202104", "about": "(BMC Biology, 2022)", "key": {"[1]": {"system": "ZIKV rhesus macaque strain MR 766", "experiment": "Plaque assay, inhibition of ZIKV infection (strain MR 766)", "type": "cell-based", "details": "Zika virus, Vero C1008; plaque assay, Vero E6 cells, rhesus strain; read-out: IC50 MR 766", "description": "(§1) After removal of the unbound compounds by centrifugation (after addition of 3% PEG-6000), ZIKV was incubated with Vero E6 cells in 24-well plates at 37°C for 1 h. The cells were then washed with PBS, overlaid with DMEM containing 1% carboxymethyl cellulose and 2% FBS, and cultured at 37°C for 4–5 days, followed by being stained with 0.5% crystal violet. […] Plaques in each well were calculated, and IC50 of compounds for each compound was calculated using the CalcuSyn computer program."}, "[2]": {"system": "ZIKV human strain PAN2015", "experiment": "Plaque assay, inhibition of ZIKV infection (strain PAN2015)", "type": "cell-based", "details": "Zika virus, Vero C1008, Vero E6 cells", "description": "as §1"}, "[3]": {"system": "ZIKV human strain R103451", "experiment": "Plaque assay, inhibition of ZIKV infection (strain R103451)", "type": "cell-based", "details": "Zika virus, Vero C1008; plaque assay, Vero E6 cells, human strain; read-out: IC50 R103451", "description": "as §1"}, "[4]": {"system": "ZIKV human strain PRVABC59", "experiment": "Plaque assay, inhibition of ZIKV infection (strain PRVABC59)", "type": "cell-based", "details": "Zika virus, Vero C1008; plaque assay, Vero E6 cells, human strain; read-out: IC50 PRVABC59", "description": "as §1"}, "DENV-2-V594": {"system": "DENV-2-V594", "experiment": "Plaque assay, inhibition of DENV-2 infection in LLC-MK2 cells", "type": "cell-based", "details": "Dengue virus, DENV2"}, "DENV-4-PR-06-65-740": {"system": "DENV-4-PR-06-65-740", "experiment": "Plaque assay, inhibition of DENV-4 infection in LLC-MK2 cells", "type": "cell-based", "details": "Dengue virus, DENV4"}, "ZIKV (PAN2016)": {"system": "ZIKV (PAN2016)", "experiment": "Time-of-addition experiment in Vero E6 cells", "type": "cell-based, Zika virus", "details": "for inhibition at 15 µM: Zika virus, Vero C1008, Vero E6 cells", "description": "Briefly, Vero E6 cells (10^5/well) and/or ZIKV were incubated in 24-well plates with or without the above compounds (15 μM) for 1 h before, 1 h after, or the same time during infection of ZIKV (the detailed procedures were described below and published previously). The following six conditions of ZIKV infection were tested: (1) condition 1: pretreatment of the virus. […] The plaque assay was performed following the standard protocol described above and before. (2) condition 2: pretreatment of cells. […] The unbound ZIKV was removed, and the cells were cultured and plaques calculated as in condition 1. (3) Condition 3: attachment. […] After removal of the unbound ZIKV and compounds, the cells were cultured and plaques calculated as in condition 1. (4) Condition 4: cotreatment. […] After removal of the unbound virus and compounds, the cells were cultured and plaques were calculated as in condition 1. (5) condition 5: fusion. Cells were incubated with ZIKV (PAN2016, 300 PFU) at 4°C for 1 h for ZIKV attachment. […] The unbound compounds were removed, and the cells were cultured and plaques calculated as in condition 1. (6) Condition 6: post-entry. Cells were incubated with ZIKV (PAN2016, 100 PFU) at 37°C for 1 h for ZIKV entry. […] The unbound compounds were then removed, and the cells were cultured and calculated for plaques as in condition 1. Since variant conditions may affect the formation of plaques, the use of different PFUs can ensure that the number of plaques in the DMSO control group is about 100/well for each condition."}, "ZIKV NS2B-NS3 protein": {"target": "T1, ZIKV NS2B-NS3 protein (Zika virus, UniProt Q32ZE1)", "T1 construct": "fused with the genes encoding NS3 protein (residues 1-185) through a linker (Gly4-Thr-Gly4); His6 (C); made in house; host or cells: E. coli", "T1 sequence (Q32ZE1 1499-1683, added parts left off, change not shown)": "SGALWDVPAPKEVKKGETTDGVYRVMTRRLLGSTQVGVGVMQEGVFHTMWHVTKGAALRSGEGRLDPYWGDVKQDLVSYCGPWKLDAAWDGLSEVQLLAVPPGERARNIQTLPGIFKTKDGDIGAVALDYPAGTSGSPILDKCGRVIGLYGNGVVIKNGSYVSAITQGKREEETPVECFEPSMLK", "experiment": "SPR binding to ZIKV NS2B-NS3", "description": "(GE Healthcare, Port Washington, NY, USA). Briefly, ZIKV EDIII protein or NS2B-NS3 protein was immobilized on a sensor chip (CM5) using the Amine Coupling Kit (GE Healthcare). Serially diluted ST087010 was added as analytes, and HBS-EP with 10% DMSO (10 mM HEPES, 150 mM NaCl, 3 mM EDTA, 0.05% Tween-20, 10% DMSO, pH 7.4) was used as a running buffer. Biacore BK evaluation software (version 1.1) was applied to analyze the data, and the curve was fitted with a 1:1 binding model."}, "[5]": {"system": "ZIKV human strain R103451", "experiment": "Lethal ZIKV challenge in adult Ifnar1−/− mice, survival and weight", "type": "in vivo", "description": "Briefly, 7–8-week-old male mice were used, and two separate experiments were performed. […] These mice were i.p. infected with ZIKV (human strain R103451, 200 PFU/mouse) and observed daily for weight changes and survival until 21 dpi. […] Five days later, these mice were sacrificed, and their tissues, including the heart, testis, eye, kidney, and brain, were collected for detection of viral titers by plaque assay, or apoptosis by immunofluorescence staining. Mice losing 20% of initial weight with severe symptoms, including hind limb weakness and paralysis, or 25% of initial weight, were humanely euthanized with an overdose isoflurane in a Bell Jar, followed by cervical dislocation."}, "[6]": {"experiment": "Safety profile in pregnant Ifnar1−/− mice and pups", "type": "in vivo", "description": "Briefly, groups of 5 pregnant mice (8–12-week-old, E12-14) were i.p. injected with ST087010 (20 or 40 mg/kg of body weight, 200 μl/mouse), or DMSO (negative control), daily for 4 continuous days."}}, "note": "Where two headings read alike, the source gives them in different places.", "data": [{"compound": "Cc1cc2c(C(C)C)c(O)c(O)c(/C=N/n3c(=O)[nH][nH]c3=O)c2c(O)c1-c1c(C)cc2c(C(C)C)c(O)c(O)c(/C=N/n3c(=O)[nH][nH]c3=O)c2c1O", "note": "[ST087010]", "values": [{"measurement": "IC50", "setting": "[1]", "value": 3.5, "unit": "µM"}, {"measurement": "IC50", "setting": "[2]", "value": 3.5, "unit": "µM"}, {"measurement": "IC50", "setting": "[3]", "value": 3.6, "unit": "µM"}, {"measurement": "IC50", "setting": "[4]", "value": 2.4, "unit": "µM"}, {"measurement": "IC50", "setting": "DENV-2-V594", "value": "3.19 ± 0.01", "unit": "µM"}, {"measurement": "IC50", "setting": "DENV-4-PR-06-65-740", "value": "2.98 ± 0.18", "unit": "µM"}, {"measurement": "Inhibition of ZIKV infection, condition 2: pretreatment of cells", "setting": "ZIKV (PAN2016); 15 μM, Vero E6 cells", "value": "no, or little"}, {"measurement": "Inhibition of ZIKV infection, condition 4: cotreatment", "setting": "ZIKV (PAN2016); 15 μM, Vero E6 cells", "value": "no, or little"}, {"measurement": "Inhibition of ZIKV infection, condition 5: fusion", "setting": "ZIKV (PAN2016); 15 μM, Vero E6 cells", "value": "no, or little"}, {"measurement": "Inhibition of ZIKV infection, condition 1: pretreatment of the virus", "setting": "ZIKV (PAN2016); 15 μM, virus incubated with compound at 37°C for 1 h before Vero E6 cells", "value": "almost completely inhibited"}, {"measurement": "inhibition at 15 µM", "setting": "ZIKV (PAN2016); 4°C 1 h, read-out: Inhibition of ZIKV infection, condition 3: attachment", "value": "< 40", "unit": "%"}, {"measurement": "inhibition at 15 µM", "setting": "ZIKV (PAN2016); read-out: Inhibition of ZIKV infection, condition 6: post-entry", "value": "< 20", "unit": "%"}, {"measurement": "Kd", "setting": "ZIKV NS2B-NS3 protein", "value": 19.9, "unit": "µM"}, {"measurement": "Mice protected from death (survival)", "setting": "[5]; 20 mg/kg i.p. 12 h before and 6, 24, 48 h post-infection, ZIKV R103451 200 PFU, observed 21 days", "value": 50, "unit": "%"}, {"measurement": "Weight loss", "setting": "[5]; 20 mg/kg i.p., ZIKV R103451 200 PFU, ST087010 figure during 6–12 dpi", "value": "less than 25%"}, {"measurement": "Body weight relative to weight before the virus infection", "setting": "[5]; 20 mg/kg i.p., ZIKV R103451, until 21 dpi", "value": 85, "unit": "%"}, {"measurement": "Histopathology of liver, spleen, kidney, and brain of mothers and pups", "setting": "[6]; 20 or 40 mg/kg, compared to DMSO", "value": "did not present pathological changes"}, {"measurement": "Inflammation or cell infiltration in tissues", "setting": "[6]; low and high doses (20 and 40 mg/kg)", "value": "no inflammation or cell infiltration"}, {"measurement": "Serum ALT and creatinine levels vs DMSO", "setting": "[6]; pregnant mice, 20 mg/kg, 1 day after injection", "value": "no significant difference"}, {"measurement": "Serum ALT and creatinine levels", "setting": "[6]; pregnant mice, 20 or 40 mg/kg, before injection and 4 h, 3 or 5 days after last injection", "value": "no significant differences"}]}]}
